The text below walks through data of patent publication US20120065126A1, “Pharmaceutical Compositions Containing Antifungal Peptides” (BASF SE, priority 2009, published 2012).

Read-outs that look alike come from different tables or passages of the source.

The test system of data set [1] is Malassezia furfur strain DSM 6170. The data set can be described thus: Long-term stability of P18 solution, growth test (CFU). The format is cell-based. The method, then: (§1) The studies described hereinafter were conducted on the Malassezia furfur strain DSM 6170.
Since storage may be necessary over a prolonged period, a 1 mM P18 peptide solution (P18 sequence H-KWKLFKKIPKFLHLAKKF-NH2) was subsequently stored at 37° C. over 12 weeks, and the antifungal activity of the stored solution on Malassezia furfur was compared with the activity of a freshly made up 1 mM P18 peptide solution. This was done using a growth test, which was conducted as follows:
Growth medium: M472 Pityrosporum medium according to DSMZ 40 g/1 malt extract 20 g/l ox bile
(§2) The growth test was effected as follows: a shake culture containing M472 Pityrosporum medium was inoculated with M. furfur and incubated with shaking at 30° C. and 200 rpm overnight.
A 96-well microtiter plate was filled with 100 μl per well of M472 Pityrosporum medium and inoculated with M. furfur suspension from the overnight culture. The M. furfur suspension was adjusted at the start of the experiment to an optical density, measured at 600 nm, of 0.02. The concentrates of the inhibitor solutions were 1 mM in water.
The following growth was compared: • M. furfur suspension without addition of an inhibitor • M. furfur suspension and addition of an aqueous fresh P18 solution with a final concentration of 50 μM • M. furfur suspension and addition of an aqueous fresh P18 solution with a final concentration of 25 μM • M. furfur suspension and addition of a P18 solution which had been stored at 37° C. for 12 weeks with a final concentration of 50 μM • M. furfur suspension and addition of a P18 solution which had been stored at 37° C. for 12 weeks with a final concentration of 25 μM
(§3) The microtiter plate was incubated with shaking at 30° C.
The growth was observed by measuring the optical density over 24 hours. Subsequently, the colony forming units (CFU) were determined by streaking 1 μl and 5 μl of each of the suspensions and, after incubation over 6 days, counting the colonies. The CFU was determined in order to rule out any influence of the biphasic medium, and also the growth form of M. furfur, on the optical density. The experiments were conducted at least in triple determinations.

Data set [2] can be described thus: Formulability of P18 in shampoo base formulations. The format is physicochemical. The following applies: 10 mM P18 in formulations 31-1 and 31-2, 5 mM in 31-3; pH 6-7. The method, then: The formulability of the peptide P18 was tested in three different shampoo base formulations. For this purpose, the formulations with the following compositions were first produced:
The components were mixed and dissolved. NaOH was used to adjust the pH to pH 6-7. Thereafter, two 100 mM solutions of peptide P18 (P18 sequence H-KWKLFKKIPKFLHLAKKF-NH2) were prepared. DMSO was the solvent for one solution; it was water for the other solution. The appropriate volume of the 100 mM P18 peptide solution was added to each of the formulations, such that the final concentration in formulations 31-1 and 31-2 was 10 mM, and the final concentration of peptide P18 in formulation 31-3 was 5 mM.

Data set [3] concerns M. furfur. Nature of the data set: Kinetics of the effect of P18 in the presence of a shampoo base formulation (CFU). The format is cell-based, Malassezia furfur. To be noted: 10% (v/v) shampoo base formulation 31-3; 0.23-2.3 g/l; 5 min to 24 h. The method, then: The experiments were conducted as follows: [table] The Texapon NSO and Tego Betain L7 components were mixed and dissolved. NaOH was used to adjust the pH to pH 6-7. The growth test was effected as follows: a shake culture containing […]. furfur and incubated with shaking at 30° C. and 200 rpm overnight. A 96-well microtiter plate was filled with 100 μl per well of […]. furfur suspension from the overnight culture. The M. furfur suspension was adjusted at the start of the experiment to an optical density, measured at 600 nm, of 0.1. 10% (v/v) of shampoo base formulation 31-3 was added to the M. furfur suspension. P18 peptide was dissolved with a concentration of 230 g/l in water. […] The microtiter plate was incubated with shaking at 30°.

Data set [4] deals with M. furfur. Nature of the data set: Long-term stability of P18 in shampoo base formulations (CFU). To be noted: formulations 31-1-10, 31-3-5, 31-3-2 stored at 40° C.; 0, 12 and 22 days. The format is cell-based, Malassezia furfur. The method, then: as §1
The long-term stability of P18 peptide (H-KWKLFKKIPKFLHLAKKF-NH2; carboxyl terminus amidated) in shampoo base formulations was tested.
The Texapon NSO and Tego Betain L7 components were mixed and dissolved. NaOH was used to adjust the pH to pH 6-7. Thereafter, a 100 mM aqueous solution of peptide P18 was prepared. The appropriate volume of the 100 mM P18 peptide solution was added to each of the formulations, such that the final concentrations of peptide P18 listed in Table 15 were obtained.
The formulations were stored at 40° C.
After 0; 12 and 22 days, the effect of the formulations on M. furfur was studied.
as §2
A 96-well microtiter plate was filled with 100 μl per well of M472 Pityrosporum medium and inoculated with M. furfur suspension from the overnight culture. The M. furfur suspension was adjusted at the start of the experiment to an optical density, measured at 600 nm, of 0.1. […]
After 24 hours, the colony forming units (CFU) were determined. For this purpose, 1 μl and 10 μl of each of the suspensions were streaked and, after incubation over the course of 6 days, the colonies were counted.

Data set [5] concerns M. furfur. The format is cell-based, Malassezia furfur. To be noted: shampoo base formulation 31-3 present. The method, then:
as §1
The minimum inhibitory concentration (MIC) of peptide P18 (H-KWKLFKKIPKFLHLAKKF-NH2; carboxyl terminus amidated) in the presence of shampoo base formulation 31-3 (Table 10) was tested in the following manner: […]
To prepare the shampoo base formulation, the Texapon NSO and Tego Betain L7 components were mixed and dissolved. NaOH was used to adjust the pH to pH 6-7.
as §2
A 96-well microtiter plate was filled with 170 μl per well of M472 Pityrosporum medium and inoculated with 10 μl of M. furfur suspension from an overnight culture. This corresponded to an optical density of 0.02-0.1, measured at 620 nm. 20 μl of shampoo base formulation 31-3 were added to this mixture. Peptide P18 was dissolved with a concentration of 10 mM in DMSO.
as §3
After incubation for 24 hours, the colony forming units (CFU) were determined by resuspending 1 μl of each of the suspensions in 10 μl of medium, and then streaking them. After incubation over the course of 6 days, the colonies on the plate were counted. The experiment was conducted in double determination.

With “H-KWKLFKKIPKFLHLAKKF-NH2 [P18, H-KWKLFKKIPKFLHLAKKF-NH2]”, the “Effect of storage on the activity of the solution” value in data set [1] (1 mM P18 peptide solution, 37° C., 12 weeks) is on record as “has not affected the activity”. Moreover, the “Colony forming units (CFU)” value in data set [1] (aqueous P18 solution (fresh), final conc. 25 μM, incubation 16-18 h) worked out at 5 ± 8 CFU; in data set [1] (aqueous P18 solution (fresh), final conc. 25 μM, incubation 24 h) it was 1 ± 2 CFU; in data set [1] (aqueous P18 solution (fresh), final conc. 50 μM, incubation 16-18 h), 0 ± 0 CFU; in data set [1] (aqueous P18 solution (fresh), final conc. 50 μM, incubation 24 h) it was 1 ± 1 CFU; in data set [1] (aqueous P18 solution stored at 37° C. for 12 weeks, final conc. 25 μM, incubation 16-18 h), 6 ± 7 CFU; in data set [1] (aqueous P18 solution stored at 37° C. for 12 weeks, final conc. 25 μM, incubation 24 h) it was 5 ± 5 CFU. Moreover, the “Colony forming units (CFU)” value in data set [1] (aqueous P18 solution stored at 37° C. for 12 weeks, final conc. 50 μM, incubation 16-18 h) stood at 0 ± 0 CFU; in data set [1] (aqueous P18 solution stored at 37° C. for 12 weeks, final conc. 50 μM, incubation 24 h), 1 ± 1 CFU. Moreover, the “Appearance of the formulations with P18” value in data set [2] was “clear and homogenous”. Also, the “Effect compared with zinc pyrithione and climbazole at different contact times” value in data set [3] is given as “better properties than zinc pyrithione or climbazole”. Besides, the “Long-term stability in shampoo base formulations” value in data set [4] is reported as “stable properties”. For the same substance, the “Colony forming units (CFU) after incubation time of 24 hours” value in data set [5] (P18 25 μM) is listed as 80 CFU; in data set [5] (P18 50 μM) it was 32 CFU; in data set [5] (P18 100 μM), 0 CFU; in data set [5] (P18 200 μM) it was 0 CFU; in data set [5] (P18 300 μM), 0 CFU; in data set [5] (P18 400 μM), 0 CFU. For the same substance, the “Colony forming units (CFU) after incubation time of 24 hours” value in data set [5] (P18 500 μM) was found to be 0 CFU.
